US9051564B2, “Compositions for and methods of identifying antigens” (President and Fellows of Harvard College, priority 2006, dated 2015)
“Also recorded” adds a separate entry of the source.

B1: Cta1: Chlamydia-specific T cell antigen-1, protein encoded by C. trachomatis ORF CT788; predicted periplasmic protein of unknown function (protein, listed as Chlamydia trachomatis)
chain: MNSGMFPFTFFLLYICLGMLTAYLANKKNRNLIGWFLAGMFFGIFAIIFLLILPPLPSSTQDNRSMDQQDSEEFLLQNTLEDSEIISIPDTMNQIAIDTEKWFYLNKDYTNVGPISIVQLTAFLKECKHSPEKGIDPQELWVWKKGMPNWEKVKNIPELSGTVKDE

Each molecule was assayed on spleen cells from NR1 TCR transgenic mice (assay: IFNγ secretion by NR1 spleen cells in response to peptide). Conditions: data not shown.
Assay type: cell-based, mouse
With “KGIDPQELWVWKKGMPNWEK (listed as Chlamydia trachomatis) [20-mer peptide, amino acids 133-152 of Cta1 (CT788)]” the “IFNγ secretion by NR1 spleen cells in response to peptide” value was “secreted high levels of IFNγ”.

Each molecule was assayed on spleen cells from NR1 TCR transgenic mice (assay: Proliferation of NR1 transgenic splenocytes in response to peptide ([3H]thymidine incorporation)). Conditions: spleen cells from naïve NR1 mice.
Assay type: cell-based, mouse
Experimental: FIG. 16B is a graph showing proliferation of splenocytes from NR1 transgenic or non-transgenic mice in response to the indicated concentrations of Cta1133-152 (SEQ ID NO:2). Proliferation was measured by [^3H]thymidine incorporation into cells.
To determine whether the NR1 transgenic T cells were specific and responsive to Cta1, we tested the proliferation of transgenic spleen cells in response to Cta1133-152 (see FIG. 14; SEQ ID NO:2).
With “OVA323-336: control peptide from ovalbumin (KISQAVHAAHAEIN) [reference compound]” the “proliferation of NR1 spleen cells in response to peptide” value was “did not proliferate”.
For “KGIDPQELWVWKKGMPNWEK (listed as Chlamydia trachomatis) [20-mer peptide, amino acids 133-152 of Cta1 (CT788)]”, the “proliferation of NR1 spleen cells in response to peptide” value was “strong proliferative response”.

Each molecule was assayed on T cell clone NR9.2 (assay: Epitope mapping: overlapping synthetic 20-mer Cta1 peptides tested for stimulating NR9.2 to secrete IFNγ (ELISA)). Conditions: T cell line NR9.2, synthetic peptides at 25 μM.
Assay type: cell-based, mouse
Source text: FIG. 22 is a graph showing T cell clone NR9.2 recognizes the novel T cell antigen Cta1133-152 (SEQ ID NO:2). The antigenic peptide from Cta1 was mapped by testing overlapping 20-mer synthetic peptides for their ability to stimulate NR9.2 to secrete IFNγ. […] Shown below is the protein sequence of Cta1 (SEQ ID NO:1) with […] (SEQ ID NO:2) underlined.
To map more closely the epitope within Cta1 recognized by the NR9.2 T cells, a series of overlapping 20-mer peptides covering the Cta1 sequence for their ability to stimulate NR9.2 to secrete IFNγ were screened (Table 2).
Identification of the T cell antigen Cta1. An expression library of genomic sequences from C. trachomatis serovar D was inserted into a modified form of the pDEST17 vector (Invitrogen) and transformed into the Stb12 strain of E. coli (Invitrogen). Following induction of protein expression, the bacteria were fixed in 0.5% paraformaldehyde and incubated with BMMs. NR9.2 T cells were then added and after 24 h, the supernatant was tested for the level of IFNγ by ELISA (Endogen, Rockford, Ill.). To identify the reactive peptide epitope within Cta1, synthetic 20-mer peptides (MIT Biopolymers Lab, Cambridge, Mass.) were used at a concentration of 25 μM in an IFNγ ELISA (Endogen).
With “SEIISIPDTMNQIAIDTEKW [overlapping synthetic 20-mer peptide of Cta1]” the IFNγ measured was 0.6 (±0.2) ng.
With “EFLLQNTLEDSEIISIPDTM [overlapping synthetic 20-mer peptide of Cta1]” the IFNγ measured was 0.6 (±0.2) ng.
“GIFAIIFLLILPPLPSSTQD [overlapping synthetic 20-mer peptide of Cta1]” was tested, and the IFNγ measured was 0.4 (±0.2) ng.
For “QSGVAGLEQLESI [C-terminal overlapping synthetic peptide of Cta1]”, the IFNγ measured was 0.8 (±0.2) ng.
In the case of “NRSMDQQDSEEFLLQNTLED [overlapping synthetic 20-mer peptide of Cta1]”, the IFNγ measured is reported as 0.6 (±0.3) ng.
With “FLKECKHSPEKGIDPQELWV [overlapping synthetic 20-mer peptide of Cta1]” the IFNγ measured was 0.5 (±0.4) ng.
For “GCANKKNRNLIGWFLAGMFF [overlapping synthetic 20-mer peptide of Cta1]”, the IFNγ measured was 0.5 (±0.3) ng.
With “LESTSLYKKAGCANKKNRNL [overlapping synthetic 20-mer peptide of Cta1]” the IFNγ measured was 0.4 (±0.2) ng.
In the case of “KGIDPQELWVWKKGMPNWEK (listed as Chlamydia trachomatis) [20-mer peptide, amino acids 133-152 of Cta1 (CT788)]”, the IFNγ measured is reported as 58.0 (±14.0) ng.
In the case of “LPPLPSSTQDNRSMDQQDSE [overlapping synthetic 20-mer peptide of Cta1]”, the IFNγ measured is reported as 0.6 (±0.2) ng.
In the case of “FYLNKDYTNVGPISIVQLTA [overlapping synthetic 20-mer peptide of Cta1]”, the IFNγ measured is reported as 0.7 (±0.4) ng.
For “NQIAIDTEKWFYLNKDYTNV [overlapping synthetic 20-mer peptide of Cta1]”, the IFNγ measured was 0.5 (±0.2) ng.
With “IGWFLAGMFFGIFAIIFLLI [overlapping synthetic 20-mer peptide of Cta1]” the IFNγ measured was 0.6 (±0.3) ng.
With “GPISIVQLTAFLKECKHSPE [overlapping synthetic 20-mer peptide of Cta1]” the IFNγ measured was 0.5 (±0.3) ng.
With “VKDESPSFLVQSGVAGLEQL [overlapping synthetic 20-mer peptide of Cta1]” the IFNγ measured was 0.7 (±0.2) ng.
In the case of “WKKGMPNWEKVKNIPELSGT [overlapping synthetic 20-mer peptide of Cta1]”, the IFNγ measured is reported as 1.4 (±0.2) ng.
“VKNIPELSGTVKDESPSFLV [overlapping synthetic 20-mer peptide of Cta1]” was tested, and the IFNγ measured was 0.8 (±0.1) ng.

Same assay, conditions: overlapping 20-mer peptides, listed as Cta1133-152
In the case of “KGIDPQELWVWKKGMPNWEK (listed as Chlamydia trachomatis) [20-mer peptide, amino acids 133-152 of Cta1 (CT788)]”, the “ability to stimulate NR9.2 to secrete IFNγ (in words)” value is reported as “induced NR9.2 to secrete significant levels of IFNγ; also recorded: stimulated NR9.2 to secrete significant levels of IFNγ”.

What follows are molecules tested on T cell clone NR9.2 (assay: Screen of E. coli clones expressing C. trachomatis ORFs, cultured with BMMs and T cell clone NR9.2, IFNγ ELISA). Conditions: 894 ORFs screened; E. coli expressing the protein.
Assay type: cell-based, mouse
Experimental: FIG. 15 is an image showing clones of E. coli expressing individual C. trachomatis ORFs cultured with BMMs and then incubated with the T cell clone NR9.2. […] E. coli expressing Cta1 (encoded by ORF CT788) induced NR9.2 to secrete high levels of IFNγ (>370 ng/ml) whereas E. coli expressing other Chlamydia proteins in the library induced only background levels of IFNγ secretion (<26 ng/ml). The well indicated as Cta1 and ELISA Standards are yellow; other wells are colorless. […] ELISA standards corresponding to high amounts of IFNγ are indicated.
Chlamydia specific CD4+ T cell clone. To identify a Chlamydia-specific TCR for the creation of TCR transgenic mice, we generated a Chlamydia-specific CD4^+ T cell clone named NR9.2. The clone specifically secreted IFNγ when co-cultured with Chlamydia-infected macrophages in an intracellular cytokine staining assay (FIG. 13A). […] A library of proteins expressed by the C. trachomatis ORFs contained in the genome database was screened. […] CT788 was annotated in the published C. trachomatis genome as a predicted periplasmic protein of unknown function (Stephens et al., Science 282:754-759, 1998), and its sequence shares little homology with proteins outside of the Chlamydia genus. CT788 was designated Cta1 (Chlamydia-specific T cell antigen-1).
Identification of the T cell antigen Cta1. […]
In the case of B1, the “stimulation of NR9.2 to secrete IFNγ (in words)” value is reported as “stimulated NR9.2 to secrete significant levels of IFNγ”.

Same assay, conditions: E. coli expressing the ORF, cultured with BMMs then NR9.2; supernatant IFNγ ELISA
With B1 the “IFNγ secreted by NR9.2” value was > 370 ng/mL.
